According to patent US20220340908A1, “METHODS FOR DEPLETION OF DELETERIOUS MITOCHONDRIAL GENOMES” (University of Massachusetts, priority 2019, published 2022):
Residues, ends and D or L forms follow the SMILES beside them. *: point of attachment. Cbz = O=C(OCc1ccccc1)*

Experiments:
LONP1 protease = molecular target: T1, LONP1 protease (Homo sapiens, UniProt P36776); details: cited from earlier work
T1 sequence (P36776 68-959): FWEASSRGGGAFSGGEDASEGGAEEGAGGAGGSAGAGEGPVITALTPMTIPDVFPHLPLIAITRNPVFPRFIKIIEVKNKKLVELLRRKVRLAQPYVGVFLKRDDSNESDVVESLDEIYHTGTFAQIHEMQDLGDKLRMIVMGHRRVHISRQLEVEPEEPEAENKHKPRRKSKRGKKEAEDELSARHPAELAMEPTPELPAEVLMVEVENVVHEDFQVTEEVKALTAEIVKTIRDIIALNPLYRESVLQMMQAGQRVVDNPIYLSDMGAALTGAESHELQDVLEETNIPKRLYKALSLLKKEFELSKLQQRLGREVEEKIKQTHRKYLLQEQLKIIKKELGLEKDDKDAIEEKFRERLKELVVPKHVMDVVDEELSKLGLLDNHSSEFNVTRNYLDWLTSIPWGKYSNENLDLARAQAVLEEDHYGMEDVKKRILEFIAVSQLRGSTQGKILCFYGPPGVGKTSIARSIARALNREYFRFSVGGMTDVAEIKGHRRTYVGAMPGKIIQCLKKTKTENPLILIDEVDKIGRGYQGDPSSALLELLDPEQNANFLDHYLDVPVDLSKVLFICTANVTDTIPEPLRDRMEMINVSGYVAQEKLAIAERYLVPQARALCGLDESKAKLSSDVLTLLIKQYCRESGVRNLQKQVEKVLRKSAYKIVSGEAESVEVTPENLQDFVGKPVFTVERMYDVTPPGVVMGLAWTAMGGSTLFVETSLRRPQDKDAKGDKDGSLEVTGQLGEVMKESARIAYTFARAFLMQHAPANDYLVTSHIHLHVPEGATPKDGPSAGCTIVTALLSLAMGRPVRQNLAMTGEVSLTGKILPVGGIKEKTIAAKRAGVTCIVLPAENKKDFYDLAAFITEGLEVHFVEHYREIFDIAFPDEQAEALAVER

KSS cybrid cells = assay: KSS ΔmtDNA quantification by qPCR in KSS heteroplasmic cybrid cells; assay type: cell-based, human; details: for KSS ΔmtDNA percentage: 4 weeks, from ˜50%
Description: For human patient fibroblast cell lines, wild-type and ΔKSS primers were used to detect wild-type mtDNA or ΔKSS mtDNA. Primers that amplify a sequence within the B2M ([…]) gene were used as an internal control for normalization. Absolute quantification was also performed to determine the percentage or ratio of KSS ΔmtDNA relative to total mtDNA (KSS ΔmtDNA and wild-type mtDNA) as previously described (11). Primers that specifically amplify wild-type or ΔmtDNA are listed in Table A. Standard curves for each qPCR primer set were generated using purified plasmids individually containing approximately 1 kb of the mtDNA fragments specific for each primer set. A Student's t-test was employed to determine the level of statistical significance.
(§1) The KSS cell line was a gift from Carlos Moraes (29, 30). The CoxI […] cell line was a gift from Giovanni Manfredi (28). Cells were cultured in DMEM (4 mM L-glutamine, 4.5 g/L glucose; Gibco, Thermo Fisher Scientific) plus 10% FBS with 1% pen-strep. Total cellular mtDNA was prepared as described (40). Cells were incubated continuously in the described concentration of CDDO for the indicated number of days. The cells were sub-cultured prior to confluence every 48 hours.
Cells were grown on 6-well plates and siRNAs were transfected with Lipofectamine RNAiMAX (Thermo Fisher Scientific) following the manufacturer's instructions. Human LONP1 RNAi was used in knockdown experiment (Dharmacon L-003979-00-0005) (e.g., a pool comprising GGAAAUCGGCCUACAAGAU (SEQ ID NO:1), GCGCAUGUAUGACGUGACA (SEQ ID NO:2), CGAGAGUACUUCCGCUUCA (SEQ ID NO:3), and GAAGAGACCAAUAUUCCUA (SEQ ID NO:4)).
ATF5 shRNA knockdown lentiviral constructs were generated using psp-108 vector (Addgene), and viruses were produced by co-transfection along with plasmids pMD2.G (Addgene) and psPAX2 (Addgene) into HEK293T cells. All viral titers were predetermined, and same number of viral particles was used for experimental and control samples. KSS cells were infected with lentiviruses, selected with puromycin for 5-7 days, and re-plated for proliferation. ATFS knockdown targeting sequences are: shRNA-1, 5′-[…]-3′ (SEQ ID NO:5); shRNA-2, 5′-[…]-3′ (SEQ ID NO:6); shRNA-3, 5′-[…]-3′ (SEQ ID NO:7); see horizondiscovery.com/en/products/gene-modulation/knockdown-reagents/shrna/PIFs/TRC-Lentiviral-shRNA?nodeid=entrezgene-22809#specifications.

[1] = 20 mg for 56 consecutive days; cited from earlier work
KSS ΔmtDNA cells = assay: Cell viability (trypan blue), KSS cells; assay type: cell-based, human; details: 0.1 μM and 0.25 μM CDDO, 72 hours
Description: as §1
(§2) At the indicated time points, cells were stained with trypan blue (41) and quantified with an automated cell counter TC-20™ (Bio-Rad). The results are an average of three independent assays.

CoxI G6930A cells [2] = assay: Respiration assay, oxygen consumption rate (Seahorse), CoxI G6930A cells; assay type: cell-based, human
Description: (§3) For mitochondrial respiration assays, oxygen consumption rate (OCR) was measured using a Seahorse Extracellular Flux Analyzer XFe96 (Seahorse Biosciences) as described (40). 14,000 cells were seeded per well and OCR was measured using the Cell MitoStress Kit (as described by the manufacture). 180 μl of XF-Media was added to each well and then the plates were subjected to analysis following sequential introduction of 1.5 μM oligomycin, 1.5 μM FCCP and 0.5 μM rotenone/antimycin as indicated. Data is normalized to total protein as determined by the BCA protein assay.

CoxI G6930A cybrid cells = assay: Percentage of CoxI G6930A mtDNA by deep sequencing in cybrid cells; assay type: cell-based, human; details: for CoxI G6930A mtDNA percentage: 3 weeks, from 86%; for CoxI G6930A mtDNA heteroplasmic ratio: 18.5 weeks continuous, from ˜90%
Description: Library construction for deep sequencing was modified from our previous report (7). Following CDDO treatment, cells were harvested at different time points and genomic DNA extracted. Briefly, regions flanking the CoxI […] site were PCR amplified using locus-specific primers bearing tails complementary to the Truseq adapters as described previously (38). 50-100 ng input genomic DNA (mtDNA included) was PCR amplified with Phusion High Fidelity DNA Polymerase (New England Biolabs):(98° C., 15 s; 67° C. 25 s; 72° C. 18 s)×30 cycles. 1 μl of each PCR reaction was amplified with barcoded primers to reconstitute the TruSeq adaptors using the Phusion High Fidelity DNA Polymerase (New England Biolabs): (98° C., 15 s; 61° C., 25 s; 72° C., 18 s)×9 cycles. Equal amounts of the products were pooled and gel purified. The purified library was deep sequenced using a paired-end 150 bp Illumina MiSeq run.
MiSeq data analysis for editing at target sites or off-target sites was performed using a suite of Unix-based-software tools. First, the quality of the paired-end sequencing reads (R1 and R2 fastq files) was assessed using FastQC (bioinformatics.babraham.ac.uk/projects/fastqc/). Raw paired-end reads were combined using paired end read merger (PEAR) (39) to generate single merged high-quality full-length reads. Reads were then filtered by quality (using Filter FASTQC (38)) to remove those with a mean PHRED quality score under 30 and a minimum per base score under 24. Each group of reads was then aligned to a corresponding reference sequence using BWA (version 0.7.5) and SAMtools (version 0.1.19). To determine background SNP or sequencing errors, all reads from each negative control replicate were combined and aligned, as described above. Background SNP types and frequencies were then cataloged in a text output format at each base using bam-readcount (github.com/genome/bam-readcount). For each drug treatment group, the average background SNP frequencies (based on SNP type, position and frequency) of the triplicate negative control group were subtracted to obtain the accurate SNP frequencies.
as §1

KSS heteroplasmic cells = assay: Respiration assay, oxygen consumption rate (Seahorse), KSS cells; assay type: cell-based, human; details: 0.1 μM or 0.25 μM, 4 weeks
Description: as §3

CoxI G6930A cells [3] = assay: Cell viability (trypan blue), CoxI G6930A cells; assay type: cell-based, human; details: 0.1 μM and 0.25 μM CDDO, 72 hours
Description: as §1, §2

In the case of C=C1OC(=O)/C(=C\CCCCCCCCCCCCC)[C@@H]1O [Obtusilactone A], the “inhibition of LONP1 protease” value (LONP1 protease) is listed as “inhibitors of LONP1 protease”.

In the case of (-)-sesamin, the “inhibition of LONP1 protease” value (LONP1 protease) is listed as “inhibitors of LONP1 protease”.

For CC1(C)CC[C@]2(C(=O)O)CC[C@]3(C)[C@H](C(=O)C=C4[C@@]5(C)C=C(C#N)C(=O)C(C)(C)[C@@H]5CC[C@]43C)[C@@H]2C1 [CDDO, 2-cyano-3,12-dioxo-oleana-1,9(11)-dien-28-oic acid], the “KSS ΔmtDNA percentage” value (KSS cybrid cells; 0.1 μM) is listed as 19.6%, the “KSS ΔmtDNA percentage” value (KSS cybrid cells; 0.25 μM) is listed as 21.2% and the tolerability [1] is listed as “well tolerated”. For the same molecule, the “viability of KSS cell line” value (KSS ΔmtDNA cells) was “neither concentration affected viability”, the “improvement of basal oxygen consumption” value (CoxI G6930A cells [2]; 0.1 μM, 3 weeks) was about 2 fold and the “improvement of basal oxygen consumption” value (CoxI G6930A cells [2]; 18.5 weeks exposure) was “over 3 fold”. For the same molecule, the maximal respiratory capacity (CoxI G6930A cells [2]; CDDO time course, 0.1 μM or 0.25 μM) was “increased”, the “CoxI G6930A mtDNA percentage” value (CoxI G6930A cybrid cells; 0.1 μM) was 68% and the “CoxI G6930A mtDNA heteroplasmic ratio” value (CoxI G6930A cybrid cells; 0.1 μM) was about 47%. For the same molecule, the “CoxI G6930A mtDNA percentage” value (CoxI G6930A cybrid cells; 0.25 μM) was 72%, the “CoxI G6930A mtDNA heteroplasmic ratio” value (CoxI G6930A cybrid cells; 0.25 μM) was 62% and the “increase in basal oxygen consumption” value (KSS heteroplasmic cells) was about 2 fold. For the same molecule, the “viability of CoxI G6930A cell line” value (CoxI G6930A cells [3]) was “neither concentration affected viability”.

In the case of O=c1n(CCCN2CCN(c3cccc(Cl)c3)CC2)nc2ccccn12 [Trazadone], the “heteroplasmy (ΔmtDNA) in KSS cells” value (KSS cybrid cells; shRNA lentivirus or multiple concentrations of drug, FIG. 11) is reported as “improved heteroplasmy”.

For Z-Leu-Leu-Leu-B(OH)2 [MG262], the “inhibition of LONP1 protease” value (LONP1 protease) is given as “potent inhibitors”.

In the case of CC(C)C[C@@H](C=O)NC(=O)[C@H](CC(C)C)NC(=O)[C@H](CC(C)C)NC(=O)OCc1ccccc1 [MG132, carbobenzoxy-Leu-Leu-leucinal] (Cbz-Leu-Leu-Leu-aldehyde), the “inhibition of LONP1 protease” value (LONP1 protease) is given as “potent inhibitors”.

B1: LONP1 siRNA: Dharmacon L-003979-00-0005, siRNA pool comprising SEQ ID NO:1-4 against human LONP1 (nucleic acid)
chain 1: GGAAAUCGGCCUACAAGAU
chain 2: GCGCAUGUAUGACGUGACA
chain 3: CGAGAGUACUUCCGCUUCA
chain 4: GAAGAGACCAAUAUUCCUA
modifications: siRNA pool, further chemistry not given here
With B1 the “decrease of ΔmtDNAs” value (KSS cybrid cells; siRNA for 4 days, KSS cybrid line) was 2.7 fold and the “heteroplasmy ratio (% KSS mtDNA)” value (KSS cybrid cells; siRNA for 4 days, from 56.9%) was 27.6%.
